{
  "source": "paper PMC4059401",
  "about": "(Xenobiotica; the fate of foreign compounds in biological …, 2013)",
  "key": {"CYP3A4": {"molecular_target": "CYP3A4 (Homo sapiens, UniProt P08684)", "sequence (P16435 2-677)": "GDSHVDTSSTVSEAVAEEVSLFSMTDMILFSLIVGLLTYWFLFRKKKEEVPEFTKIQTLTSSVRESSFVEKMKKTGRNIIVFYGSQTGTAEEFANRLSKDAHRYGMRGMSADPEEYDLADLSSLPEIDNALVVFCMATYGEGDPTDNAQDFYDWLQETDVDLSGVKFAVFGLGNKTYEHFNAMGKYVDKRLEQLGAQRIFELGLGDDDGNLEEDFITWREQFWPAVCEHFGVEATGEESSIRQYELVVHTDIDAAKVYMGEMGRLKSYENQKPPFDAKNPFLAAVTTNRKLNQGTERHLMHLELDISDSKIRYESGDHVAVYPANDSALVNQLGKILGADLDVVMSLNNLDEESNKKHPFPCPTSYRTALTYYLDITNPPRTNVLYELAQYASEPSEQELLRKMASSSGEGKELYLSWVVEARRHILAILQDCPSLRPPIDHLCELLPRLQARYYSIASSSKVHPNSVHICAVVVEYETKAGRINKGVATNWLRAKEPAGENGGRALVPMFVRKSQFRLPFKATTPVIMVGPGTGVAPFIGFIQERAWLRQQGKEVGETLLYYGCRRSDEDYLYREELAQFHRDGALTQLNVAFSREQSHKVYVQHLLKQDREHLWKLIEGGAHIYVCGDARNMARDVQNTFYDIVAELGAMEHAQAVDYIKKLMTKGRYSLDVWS", "sequence (P08684 2-503)": "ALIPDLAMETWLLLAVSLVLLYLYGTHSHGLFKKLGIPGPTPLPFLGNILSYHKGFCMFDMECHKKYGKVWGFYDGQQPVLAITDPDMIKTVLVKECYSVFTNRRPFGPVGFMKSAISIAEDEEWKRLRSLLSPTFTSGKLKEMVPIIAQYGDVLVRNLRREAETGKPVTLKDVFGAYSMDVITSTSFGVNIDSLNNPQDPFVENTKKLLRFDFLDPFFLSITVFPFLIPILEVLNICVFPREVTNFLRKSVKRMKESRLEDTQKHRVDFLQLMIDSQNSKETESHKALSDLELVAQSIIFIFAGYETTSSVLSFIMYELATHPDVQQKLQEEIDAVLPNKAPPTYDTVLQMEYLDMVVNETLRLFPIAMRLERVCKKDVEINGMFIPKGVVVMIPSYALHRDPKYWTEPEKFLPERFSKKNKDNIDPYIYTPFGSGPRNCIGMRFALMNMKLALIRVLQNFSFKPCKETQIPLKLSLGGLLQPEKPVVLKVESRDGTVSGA", "assay": "metabolite formation by recombinant CYP Supersomes, LC/MS", "type": "cell-based"}, "CYP2D6": {"molecular_target": "CYP2D6 (Homo sapiens, UniProt P10635)", "sequence (P10635 whole entry)": "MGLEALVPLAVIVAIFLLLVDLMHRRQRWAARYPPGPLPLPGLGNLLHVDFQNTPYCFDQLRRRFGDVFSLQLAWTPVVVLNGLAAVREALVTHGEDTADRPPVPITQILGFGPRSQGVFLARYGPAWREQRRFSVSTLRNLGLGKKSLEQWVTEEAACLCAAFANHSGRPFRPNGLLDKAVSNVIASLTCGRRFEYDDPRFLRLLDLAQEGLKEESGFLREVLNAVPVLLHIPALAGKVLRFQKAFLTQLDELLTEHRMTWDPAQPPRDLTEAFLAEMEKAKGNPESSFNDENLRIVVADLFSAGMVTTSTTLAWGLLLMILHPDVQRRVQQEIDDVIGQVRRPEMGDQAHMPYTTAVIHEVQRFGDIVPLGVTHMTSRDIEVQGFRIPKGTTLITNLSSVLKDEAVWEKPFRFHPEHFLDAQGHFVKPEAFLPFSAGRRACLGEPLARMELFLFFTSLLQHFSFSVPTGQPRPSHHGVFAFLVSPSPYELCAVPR", "assay": "UV-visible spectral binding titration, purified enzyme"}, "CYP1A2": {"molecular_target": "CYP1A2 (Homo sapiens, UniProt P05177)", "sequence (P16435 2-677)": "as the sequence (P16435 2-677) above", "sequence (P05177 2-516)": "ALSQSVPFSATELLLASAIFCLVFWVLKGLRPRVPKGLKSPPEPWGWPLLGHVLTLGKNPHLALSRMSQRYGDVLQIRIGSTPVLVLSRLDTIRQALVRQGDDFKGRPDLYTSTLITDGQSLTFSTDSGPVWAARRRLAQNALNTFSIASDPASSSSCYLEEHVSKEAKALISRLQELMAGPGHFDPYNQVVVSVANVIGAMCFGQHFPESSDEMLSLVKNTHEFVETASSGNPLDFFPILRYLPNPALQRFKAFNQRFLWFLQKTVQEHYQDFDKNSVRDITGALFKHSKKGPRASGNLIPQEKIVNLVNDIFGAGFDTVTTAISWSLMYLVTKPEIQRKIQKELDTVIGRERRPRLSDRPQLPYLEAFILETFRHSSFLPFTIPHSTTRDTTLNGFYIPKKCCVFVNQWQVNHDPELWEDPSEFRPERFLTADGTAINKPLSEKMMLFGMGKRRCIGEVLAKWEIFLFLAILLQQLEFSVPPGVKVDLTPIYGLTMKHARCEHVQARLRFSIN", "assay": "metabolite formation by recombinant CYP Supersomes, LC/MS", "type": "cell-based"}},
  "data": [
    {"smiles": "CCN(CC)CCNC(=O)c1cc(Cl)c(N)cc1OC", "note": "[Metoclopramide, 4-amino-5-chloro-N-(2-(diethylamino)ethyl)-2-methoxybenzamide]", "values": [
      {"measurement": "metabolite formation by recombinant CYP Supersomes, LC/MS", "setting": "CYP3A4", "result": "All three monooxygenation products (M4a, M4b, M4c) were formed by CYP3A4 and CYP2D6"},
      {"measurement": "Kd", "setting": "CYP2D6", "result": "9.56 ± 1.09", "unit": "µM"},
      {"measurement": "metabolite formation by recombinant CYP Supersomes, LC/MS", "setting": "CYP1A2", "result": "CYPs 1A2, 2C9, 2C19, and 3A4 also metabolized metoclopramide."}
    ]}
  ]
}
